Data published in patent US11174253B2, “Compound and pharmaceutical composition containing the same” (ALPHALA CO., LTD., priority 2017, dated 2021).

How the values were obtained:
Assay type in all cases: cell-based
[1] = test system: SW480 colon adenocarcinoma cell line; assay: MTS cell viability assay (NCI-60 methodology), GI50/LC50, SW480; settings: Homo sapiens, 48 h, SW480 cells, 2 days incubation with compound
Experimental: (§1) The number of treated cells was determined by GE InCell 2200 system, and treated cells were stained with Hoechst 33342 which can reveal the remained nucleus in culture plate. The proportion of survival cells then were calculated with the ratio of treated/non-treated cells. The growth inhibition/cytotoxic effect of selected compounds were evaluated by the following protocol of NCI-60 screening platform. The human tumor cell lines are plating on a 96 well plate in a fixed density 24 hr prior compound treatment. Compounds with multiple concentrations are then added into each well for further 48 hr incubation. Cell viability is assessed by MTS method and the potency of compound is represented by GI50 and LC50 calculated by MTS result.
(§2) The cell viability measurement is based on the NCI-60 screening methodology (Nat. Rev. Cancer 6, 813-823, 2006). Briefly, cells are inoculated into 96-well plates at the optimal plating density. After 24 h, one of the two plates for each cell line is processed to determine a time zero cell viability (Tz) by MTS assay (Promega). Compounds are added over a 2-fold serial dilution to provide a total five drug concentrations plus DMSO control. Plates are incubated for a further 2 days, then measured cell viability by MTS assay [control growth (C) and test growth in the presence of drug at the five concentration levels (Ti)]. Growth inhibition of 50% (GI50) is calculated from [(Ti−Tz)/(C−Tz)]×100=50, which is the drug concentration resulting in a 50% reduction of control cells during the drug incubation. The LC50 is calculated from [(Ti−Tz)/Tz]×100=−50, which is the drug concentration resulting in a 50% reduction at the end of the drug treatment as compared to that at the beginning.
(§3) Herein, Hep3B refers to hepatocellular carcinoma cell line, SW480 refers to colon adenocarcinoma cell line, and NCI-H460 refers to human lung cancer cell line.

[2] = test system: hepatocellular carcinoma cell line Hep3B; assay: Growth inhibition of Hep3B cells, 48 hr treatment, Hoechst 33342 nucleus count (GE InCell 2200); settings: Homo sapiens
Outline: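 Compound exposure lasted 48 hr at 37° C, 5% CO2. Surviving nuclei were counted after Hoechst 33342 staining, and survival was expressed as the treated/non-treated cell number ratio, including the ratio at 10 μM compound.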

[3] = test system: Hep3B hepatocellular carcinoma cell line; assay: MTS cell viability assay (NCI-60 methodology), GI50/LC50, Hep3B; settings: Homo sapiens, 48 h, Hep3B cells, 2 days incubation with compound
Experimental: as §1, §2, §3

[4] = test system: NCI-H460 human lung cancer cell line; assay: MTS cell viability assay (NCI-60 methodology), GI50/LC50, NCI-H460; settings: 48 h, NCI-H460 cells, 2 days incubation with compound
Experimental: as §1, §2, §3

[5] = Table 5, ratio of number of tumor cells treated with 10 μM compound to non-treated cells
[6] = Table 6, ratio of number of tumor cells treated with 10 μM compound to non-treated cells
[7] = Table 1, ratio of number of tumor cells treated with 10 μM compound to non-treated cells

| SMILES | GI50 [1] | LC50 (NCI-60 lethal concentration, 50% net cell loss vs time zero) [1] | viability at 10 µM [2, 5] | GI50 [3] | LC50 [3] | GI50 [4] | LC50 (concentration giving 50% net cell loss versus time zero, NCI-60 definition) [4] | viability at 10 µM [2, 6] | viability at 10 µM [2, 7] |
| --- | --- | --- | --- | --- | --- | --- | --- | --- | --- |
| CCCOc1ccc(-c2nc(NC(=O)c3ccc([N+](=O)[O-])s3)sc2Oc2ccc(C(F)(F)F)cc2Cl)cc1 [Compound 5-38, N-(5-(2-chloro-4-(trifluoromethyl)phenoxy)-4-(4-propoxyphenyl)thiazol-2-yl)-5-nitrothiophene-2-carboxamide] | 770 nM | 3220 nM | 41% | 370 nM | 1710 nM | 570 nM | 1430 nM | – | – |
| O=C(Nc1nc(-c2ccc(Br)cc2)c(Oc2ccc(C(F)(F)F)cc2)s1)c1ccc([N+](=O)[O-])s1 [Compound 5-7, N-(4-(4-bromophenyl)-5-(4-(trifluoromethyl)phenoxy)thiazol-2-yl)-5-nitrothiophene-2-carboxamide] | 320 nM | 2800 nM | 31% | 630 nM | 1230 nM | 850 nM | 1850 nM | – | – |
| CCCOc1ccc(-c2nc(NC(=O)c3ccc([N+](=O)[O-])s3)sc2-c2ccc(F)cc2)cc1 [Compound 6-16, N-(5-(4-fluorophenyl)-4-(4-propoxyphenyl)thiazol-2-yl)-5-nitrothiophene-2-carboxamide] | 1890 nM | 2790 nM | – | 1240 nM | 1830 nM | 860 nM | 1750 nM | 59% | – |
| Cc1ccc(-c2nc(NC(=O)c3ccc([N+](=O)[O-])s3)sc2-c2cc(C(F)(F)F)cc(C(F)(F)F)c2)cc1 [Compound 6-5, N-(5-(3,5-bis(trifluoromethyl)phenyl)-4-(p-tolyl)thiazol-2-yl)-5-nitrothiophene-2-carboxamide] | 1200 nM | 1410 nM | – | 950 nM | 1080 nM | 1120 nM | 1630 nM | 46% | – |
| CCCCCCOc1ccc(-c2nc(NC(=O)c3ccc([N+](=O)[O-])s3)sc2Oc2ccccc2)cc1 [Compound 5-67, N-(4-(4-(hexyloxy)phenyl)-5-phenoxythiazol-2-yl)-5-nitrothiophene-2-carboxamide] | 1030 nM | 1910 nM | 46% | 620 nM | 690 nM | 790 nM | 1350 nM | – | – |
| O=C(Nc1nc(-c2ccc(C(F)(F)F)cc2)c(Oc2ccccc2)s1)c1ccc([N+](=O)[O-])s1 [Compound 5-81, 5-nitro-N-(5-phenoxy-4-(4-(trifluoromethyl)phenyl)thiazol-2-yl)thiophene-2-carboxamide] | 2470 nM | 8600 nM | 30% | 980 nM | 4230 nM | 810 nM | 2110 nM | – | – |
| CCCOc1ccc(-c2nc(NC(=O)c3ccc([N+](=O)[O-])s3)sc2Oc2ccc(Br)cc2)cc1 [Compound 5-27, N-(5-(4-bromophenoxy)-4-(4-propoxyphenyl)thiazol-2-yl)-5-nitrothiophene-2-carboxamide] | 1230 nM | 4870 nM | 31% | 820 nM | 1510 nM | 1960 nM | 4740 nM | – | – |
| CCC(C)(C)c1ccc(-c2nc(NC(=O)c3ccc([N+](=O)[O-])s3)sc2Oc2ccc(F)cc2)cc1 [Compound 5-63, N-(5-(4-fluorophenoxy)-4-(4-(tert-pentyl)phenyl)thiazol-2-yl)-5-nitrothiophene-2-carboxamide] | 880 nM | 1850 nM | 37% | 430 nM | 950 nM | 680 nM | 1110 nM | – | – |
| CCOc1ccc(-c2nnc(NC(=O)Cc3ccc4nc(N)sc4c3)s2)cc1 [Compound 1-2, 2-(2-aminobenzo[d]thiazol-6-yl)-N-(5-(4-ethoxyphenyl)-1,3,4-thiadiazol-2-yl)acetamide] | 3550 nM | 8930 nM | – | 160 nM | 480 nM | 860 nM | 1240 nM | – | 61% |
| CC(C)(C)c1ccc(-c2nc(NC(=O)c3ccc([N+](=O)[O-])s3)sc2-c2ccc(F)c(F)c2)cc1 [Compound 6-46, N-(4-(4-(tert-butyl)phenyl)-5-(3,4-difluorophenyl)thiazol-2-yl)-5-nitrothiophene-2-carboxamide] | 680 nM | 1330 nM | – | 590 nM | 1100 nM | 630 nM | 900 nM | 31% | – |
| CCC(C)(C)c1ccc(Oc2sc(NC(=O)c3ccc([N+](=O)[O-])s3)nc2-c2ccc(F)cc2)cc1 [Compound 5-62, N-(4-(4-fluorophenyl)-5-(4-(tert-pentyl)phenoxy)thiazol-2-yl)-5-nitrothiophene-2-carboxamide] | 760 nM | 2250 nM | 45% | 450 nM | 1160 nM | 590 nM | 1240 nM | – | – |
| O=C(Nc1nc(-c2ccc(Br)cc2)c(Oc2cccc(C(F)(F)F)c2)s1)c1ccc([N+](=O)[O-])s1 [Compound 5-11, N-(4-(4-bromophenyl)-5-(3-(trifluoromethyl)phenoxy)thiazol-2-yl)-5-nitrothiophene-2-carboxamide] | 7040 nM | – | 21% | 6540 nM | – | 630 nM | 3980 nM | – | – |
| CCOc1ccc(-c2nc(NC(=O)c3ccc([N+](=O)[O-])s3)sc2Oc2cccc(C(F)(F)F)c2)cc1 [Compound 5-23, N-(4-(4-ethoxyphenyl)-5-(3-(trifluoromethyl)phenoxy)thiazol-2-yl)-5-nitrothiophene-2-carboxamide] | 6420 nM | – | 30% | 1220 nM | 3960 nM | 2490 nM | 4430 nM | – | – |
| CC(C)(C)c1ccc(-c2nc(NC(=O)c3ccc([N+](=O)[O-])s3)sc2-c2ccc(Cl)cc2)cc1 [Compound 6-59, N-(4-(4-(tert-butyl)phenyl)-5-(4-chlorophenyl)thiazol-2-yl)-5-nitrothiophene-2-carboxamide] | 750 nM | 1620 nM | – | 600 nM | 640 nM | 700 nM | 1280 nM | 27% | – |
| CCOc1ccc(-c2nc(NC(=O)c3ccc([N+](=O)[O-])s3)sc2Oc2ccccc2)cc1 [Compound 5-6, N-(4-(4-ethoxyphenyl)-5-phenoxythiazol-2-yl)-5-nitrothiophene-2-carboxamide] | 2590 nM | 5520 nM | 42% | 1100 nM | 4350 nM | 1170 nM | 3990 nM | – | – |
| CCOc1ccc(-c2nc(NC(=O)c3ccc([N+](=O)[O-])s3)sc2Oc2ccc(C(C)(C)C)cc2)cc1 [Compound 5-29, N-(5-(4-(tert-butyl)phenoxy)-4-(4-ethoxyphenyl)thiazol-2-yl)-5-nitrothiophene-2-carboxamide] | 3340 nM | 9950 nM | 42% | 1840 nM | 3860 nM | 3240 nM | 9120 nM | – | – |
| CCC(CC)Oc1ccccc1-c1nnc(NC(=O)Cc2ccc3nc(N)sc3c2)s1 [Compound 1-22, 2-(2-aminobenzo[d]thiazol-6-yl)-N-(5-(2-(pentan-3-yloxy)phenyl)-1,3,4-thiadiazol-2-yl)acetamide] | 1230 nM | – | – | 90 nM | 8360 nM | 2670 nM | – | – | 66% |
